Measurements: ChEMBL document CHEMBL3217638, “Synthetic modulators of the retinoic acid receptor-related orphan receptors” (Medchemcomm, 2013)
Values belong to the compound of their own block, whether it stands above or below them.

Key:
[1] = target: T1, Nuclear receptor ROR-gamma (Homo sapiens) (UniProt P51449); test: Binding affinity to human ROR gamma ligand binding domain assessed as thermal stability shift by circular dichroism analysis
T1 sequence (whole entry): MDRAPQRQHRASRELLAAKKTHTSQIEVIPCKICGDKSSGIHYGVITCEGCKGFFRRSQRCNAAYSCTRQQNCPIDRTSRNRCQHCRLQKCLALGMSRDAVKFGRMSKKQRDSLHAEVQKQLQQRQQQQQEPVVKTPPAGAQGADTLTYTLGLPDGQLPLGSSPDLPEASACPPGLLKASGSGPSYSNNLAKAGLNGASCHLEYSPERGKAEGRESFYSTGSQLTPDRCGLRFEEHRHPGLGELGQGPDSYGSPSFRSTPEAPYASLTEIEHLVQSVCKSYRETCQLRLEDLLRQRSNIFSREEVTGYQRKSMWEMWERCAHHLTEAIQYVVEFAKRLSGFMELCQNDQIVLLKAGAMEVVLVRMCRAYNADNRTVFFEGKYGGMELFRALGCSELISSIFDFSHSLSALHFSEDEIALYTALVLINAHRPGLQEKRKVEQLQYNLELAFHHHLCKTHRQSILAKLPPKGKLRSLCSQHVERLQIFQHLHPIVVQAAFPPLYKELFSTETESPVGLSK

[2] = target: T2, Estrogen-related receptor gamma (Homo sapiens, UniProt P62508); test: Binding affinity to human ERR gamma
T2 sequence (P62508 whole entry): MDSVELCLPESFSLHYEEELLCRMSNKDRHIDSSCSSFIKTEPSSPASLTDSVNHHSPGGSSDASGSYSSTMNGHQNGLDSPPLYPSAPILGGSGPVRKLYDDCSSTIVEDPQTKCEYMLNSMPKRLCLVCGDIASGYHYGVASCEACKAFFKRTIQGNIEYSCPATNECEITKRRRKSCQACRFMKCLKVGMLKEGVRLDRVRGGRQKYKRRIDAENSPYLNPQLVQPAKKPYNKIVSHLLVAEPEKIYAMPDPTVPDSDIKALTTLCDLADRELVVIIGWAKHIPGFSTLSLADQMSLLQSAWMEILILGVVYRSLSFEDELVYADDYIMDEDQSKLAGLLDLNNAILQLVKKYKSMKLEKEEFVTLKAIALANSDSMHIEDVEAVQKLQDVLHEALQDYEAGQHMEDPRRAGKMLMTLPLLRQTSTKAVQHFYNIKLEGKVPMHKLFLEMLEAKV

[3] = target: T3, Nuclear receptor ROR-gamma (Homo sapiens, UniProt P51449); test: Displacement of 25-[3H]hydroxycholesterol from ROR gamma (unknown origin) by competitive binding assay
T3 sequence (P51449 whole entry): T1 sequence (whole entry)

[4] = target: T3, Nuclear receptor ROR-gamma; test: Activity at human His(GST)-tagged ROR gamma LBD expressed in Escherichia coli BL21 (DE3) cells assessed as receptor-biotinylated SRC1 peptide interaction by TR-FRET assay; assay type: functional
[5] = target: T4, Nuclear receptor ROR-alpha (Homo sapiens, UniProt P35398); test: Displacement of 25-[3H]hydroxycholesterol from GST-tagged ROR alpha ligand binding domain (unknown origin) expressed in Escherichia coli BL21 gold (DE3) cells by radioligand competition assay
T4 sequence (P35398 whole entry): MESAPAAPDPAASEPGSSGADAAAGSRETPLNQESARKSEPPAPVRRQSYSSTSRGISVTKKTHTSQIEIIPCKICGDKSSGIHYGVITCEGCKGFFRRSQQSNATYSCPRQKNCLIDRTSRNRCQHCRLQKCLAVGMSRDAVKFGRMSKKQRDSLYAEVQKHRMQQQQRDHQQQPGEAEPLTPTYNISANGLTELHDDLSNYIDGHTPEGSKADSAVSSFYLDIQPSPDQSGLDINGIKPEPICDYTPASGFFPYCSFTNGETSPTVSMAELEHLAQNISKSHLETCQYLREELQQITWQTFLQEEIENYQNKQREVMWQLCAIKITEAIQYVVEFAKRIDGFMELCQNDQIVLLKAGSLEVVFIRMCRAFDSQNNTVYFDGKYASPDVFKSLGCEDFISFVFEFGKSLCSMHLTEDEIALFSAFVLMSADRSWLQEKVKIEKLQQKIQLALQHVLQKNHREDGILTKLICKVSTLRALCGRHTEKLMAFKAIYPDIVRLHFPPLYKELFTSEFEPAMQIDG

[6] = target: T5, Nuclear receptor ROR-alpha (Mus musculus) (UniProt P51448); conditions: CHO-K1
T5 sequence (whole entry): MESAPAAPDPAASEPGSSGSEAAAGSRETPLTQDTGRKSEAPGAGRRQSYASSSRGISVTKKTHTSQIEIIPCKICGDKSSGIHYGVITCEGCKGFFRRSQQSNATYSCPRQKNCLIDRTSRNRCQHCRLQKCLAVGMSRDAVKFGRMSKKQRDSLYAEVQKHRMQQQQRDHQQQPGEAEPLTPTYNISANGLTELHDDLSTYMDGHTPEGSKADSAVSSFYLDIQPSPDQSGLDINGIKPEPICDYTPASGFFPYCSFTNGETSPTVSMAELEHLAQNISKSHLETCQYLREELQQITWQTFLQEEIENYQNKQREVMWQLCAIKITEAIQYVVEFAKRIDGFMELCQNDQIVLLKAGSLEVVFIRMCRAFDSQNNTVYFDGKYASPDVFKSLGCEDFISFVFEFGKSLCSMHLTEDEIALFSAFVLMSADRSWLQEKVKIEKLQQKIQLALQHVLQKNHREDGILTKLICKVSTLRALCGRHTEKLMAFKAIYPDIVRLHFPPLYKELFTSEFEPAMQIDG
Description: Inverse agonist activity at mouse ROR alpha expressed in CHO-K1 cells after 24 hrs by luciferase reporter gene assay relative to vehicle control response

[7] = target: T6, Nuclear receptor ROR-gamma (Mus musculus) (UniProt P51450); conditions: CHO-K1
T6 sequence (whole entry): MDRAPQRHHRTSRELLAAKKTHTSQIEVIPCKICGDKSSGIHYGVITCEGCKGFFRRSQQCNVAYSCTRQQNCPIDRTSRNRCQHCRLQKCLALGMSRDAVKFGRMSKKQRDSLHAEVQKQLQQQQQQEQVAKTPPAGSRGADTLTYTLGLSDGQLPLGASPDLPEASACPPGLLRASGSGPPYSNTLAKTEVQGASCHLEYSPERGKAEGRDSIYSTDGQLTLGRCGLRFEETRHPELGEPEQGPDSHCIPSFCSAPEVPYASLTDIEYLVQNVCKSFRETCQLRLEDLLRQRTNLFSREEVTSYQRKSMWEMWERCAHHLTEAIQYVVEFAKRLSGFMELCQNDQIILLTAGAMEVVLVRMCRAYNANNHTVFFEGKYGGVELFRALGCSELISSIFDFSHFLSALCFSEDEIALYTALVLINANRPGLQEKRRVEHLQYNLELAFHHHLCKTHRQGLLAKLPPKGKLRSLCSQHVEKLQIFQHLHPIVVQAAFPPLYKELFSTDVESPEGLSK
Description: Inverse agonist activity at mouse ROR gamma expressed in CHO-K1 cells after 24 hrs by luciferase reporter gene assay relative to vehicle control response

[8] = target: T3, Nuclear receptor ROR-gamma; test: Agonist activity at full length human ROR gamma expressed in human Jurkat cells assessed as IL17 promoter activation by luciferase reporter gene assay; assay type: functional, cell-based
[9] = target: T3, Nuclear receptor ROR-gamma; test: Displacement of 25-[3H]hydroxycholesterol from GST-tagged ROR gamma ligand binding domain (unknown origin) expressed in Escherichia coli BL21 gold (DE3) cells by radioligand competition assay
[10] = target: T4, Nuclear receptor ROR-alpha; test: Inverse agonist activity at GAL4-fused ROR alpha (unknown origin) expressed in HEK293 cells assessed as inhibition of transcriptional activity after 24 hrs by luciferase reporter gene assay; assay type: cell-based
[11] = target: T3, Nuclear receptor ROR-gamma
Description: Inverse agonist activity at GAL4-fused ROR gamma (unknown origin) expressed in HEK293 cells assessed as inhibition of transcriptional activity after 24 hrs by luciferase reporter gene assay

[12] = target: T7, Oxysterols receptor LXR-alpha (Homo sapiens) (UniProt Q13133); test: Activation of GAL4-fused LXR alpha (unknown origin) expressed in HEK293T cells after 20 hrs relative to T0901317; assay type: cell-based; conditions: HEK-293T
T7 sequence (whole entry): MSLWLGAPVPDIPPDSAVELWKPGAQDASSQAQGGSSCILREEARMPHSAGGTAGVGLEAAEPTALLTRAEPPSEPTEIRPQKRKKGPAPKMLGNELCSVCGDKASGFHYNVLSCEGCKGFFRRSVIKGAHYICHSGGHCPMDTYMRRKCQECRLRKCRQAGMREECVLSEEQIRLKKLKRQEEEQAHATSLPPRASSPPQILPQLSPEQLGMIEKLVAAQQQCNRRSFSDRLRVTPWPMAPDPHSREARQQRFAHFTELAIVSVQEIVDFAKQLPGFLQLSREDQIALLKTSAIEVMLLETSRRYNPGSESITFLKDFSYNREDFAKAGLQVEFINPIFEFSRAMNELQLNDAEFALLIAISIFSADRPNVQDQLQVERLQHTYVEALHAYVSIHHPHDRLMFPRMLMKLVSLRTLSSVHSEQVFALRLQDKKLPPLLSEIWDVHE

[13] = target: T8, Nuclear receptor ROR-beta (Homo sapiens) (UniProt Q92753); test: Inhibition of ROR beta (unknown origin)-mediated transactivation
T8 sequence (whole entry): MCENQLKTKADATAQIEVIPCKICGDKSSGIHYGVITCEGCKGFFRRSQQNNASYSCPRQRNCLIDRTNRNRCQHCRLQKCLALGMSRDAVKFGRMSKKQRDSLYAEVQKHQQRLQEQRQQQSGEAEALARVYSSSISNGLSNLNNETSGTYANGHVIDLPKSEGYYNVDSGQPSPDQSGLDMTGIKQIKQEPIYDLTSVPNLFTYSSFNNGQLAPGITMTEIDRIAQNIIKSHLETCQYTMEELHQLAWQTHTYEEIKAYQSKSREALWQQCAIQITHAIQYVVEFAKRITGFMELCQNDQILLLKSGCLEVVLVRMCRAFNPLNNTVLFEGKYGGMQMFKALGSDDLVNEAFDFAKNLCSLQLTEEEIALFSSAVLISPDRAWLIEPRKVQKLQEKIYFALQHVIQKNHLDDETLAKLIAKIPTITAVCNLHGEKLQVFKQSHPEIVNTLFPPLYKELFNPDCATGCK

SMILES: CC(C)CCC(O)[C@@H](C)[C@H]1CC[C@H]2[C@@H]3CC=C4C[C@@H](O)CC[C@]4(C)[C@H]3CC[C@]12C (stereo partly drawn)
melting temperature shift (delta Tm) [1]: 7.3 °C

SMILES: CC(C)(c1ccc(O)cc1)c1ccc(O)cc1 [BISPHENOL A]
Kd [2]: 5.5 nM

SMILES: CCC(C)c1cc(C(C)(C)c2ccc(O)c(C(C)CC)c2)ccc1O (stereo not drawn)
IC50 [3]: 150 nM

EC50 [4]: 11 nM
SMILES: O=C(O)c1ccc(-c2nn(C(=O)c3c(Cl)cccc3Cl)c3ccccc23)cc1

SMILES: CC(C)CCC[C@@H](C)[C@H]1CC[C@H]2[C@@H]3C(=O)C=C4C[C@@H](O)CC[C@]4(C)[C@H]3CC[C@]12C [7-OXOCHOLESTEROL]
Ki [5]: 12 nM

SMILES: Clc1ccc(CS/C(Cn2cncn2)=N\c2ccc(Cl)cc2Cl)cc1
IC20 [6]: 10000 nM
IC20 [7]: 3000 nM

EC50 [8]: 100 nM
melting temperature shift (delta Tm) [1]: 3 °C
SMILES: CCC(=O)Nc1ccc2nn(-c3ccc(CC)cc3)nc2c1

SMILES: CC(C)[C@@H](O)CC[C@@H](C)[C@H]1CC[C@H]2[C@@H]3CC=C4C[C@@H](O)CC[C@]4(C)[C@H]3CC[C@]12C
Ki [9]: 10 nM

SMILES: CC(C)CCC[C@@H](C)[C@H]1CC[C@H]2[C@@H]3[C@H](O)C=C4C[C@@H](O)CC[C@]4(C)[C@H]3CC[C@]12C
Ki [9]: 10 nM

SMILES: O=S(=O)(c1ccccc1)N(CC(F)(F)F)c1ccc(C(O)(C(F)(F)F)C(F)(F)F)cc1
IC20 [6]: 12000 nM

SMILES: CC(=O)Nc1nc(C)c(S(=O)(=O)Nc2ccc(C(O)(C(F)(F)F)C(F)(F)F)cc2)s1
Ki [5]: 172 nM
Ki [9]: 111 nM
EC50 [10]: 4000 nM
EC50 [11]: 4000 nM

Activity [12]: < 5%
SMILES: CC(=O)N1CCN(Cc2ccc(-c3ccc(C(O)(C(F)(F)F)C(F)(F)F)cc3)cc2)CC1

Imax [13]: 70%
SMILES: CC1=C(/C=C/C(C)=C/C=C/C(C)=C/C(=O)O)C(C)(C)CCC1
